In patent publication US12268777B2, “Compositions and methods for treating eosinophilic disorders” (The Regents of the University of California, priority 2019, dated 2025):

How the values were obtained:
[1] = tested on: EoE-derived primary esophageal fibroblasts; assay: Western immunoblot of pro-fibrotic protein expression in EoE-derived esophageal fibroblasts; type: cell-based, human
Experimental: Reagents, human esophageal tissues, and primary human esophageal fibroblast isolation TGF-β1 (5 ng/mL; R&D Systems, Minneapolis, MN), rosiglitazone (20 μM; Abcam, Boston, MA), pioglitazone (20 μM; Sigma-Aldrich, St. Louis, MO), budesonide (0.1 μM; St. Louis, MO), and IL-4 (10 ng/mL; R&D Systems, Minneapolis, MN) were used in cell culture experiments. […] Active EoE was defined as greater than or equal to 15 eosinophils per hpf. Human organ transplant donor esophagi served as normal controls and were provided by the National Disease Research Interchange and the Arkansas Regional Organ Recovery Agency Control. […]
Adherent cells were washed with ice-cold phosphate-buffered saline containing 1 mM sodium orthovanadate (Na3VO4) and lysed in ice-cold RIPA lysis buffer freshly prepared and supplemented with 1 mM Na3VO4, complete protease inhibitor cocktail, and 2 mM phenylmethylsulfonyl fluoride. […] Equivalent amounts of total proteins were loaded into each well and electrophoresed on NuPAGE 4-12% Bis-Tris gels (Life Technologies, Grand Island, NY), transferred to polyvinylidene difluoride membranes, blocked with 5% bovine serum albumin, incubated with primary antibodies overnight (1:1,000) at 4° C., detected using species-appropriate horseradish peroxidase-conjugated secondary antibodies, and quantified as previously described (Rawson et al., J. Allergy Clin. Immunol., 138:791-800, 2016).

[2] = tested on: nonalcoholic steatohepatitis (NASH); conditions: compared to placebo; cited from earlier work
[3] = in vivo; cited from earlier work
[4] = tested on: normal esophageal fibroblasts; assay: Western immunoblot of pro-fibrotic protein expression in normal esophageal fibroblasts; type: cell-based, human; conditions: 20 μM, N=3
Experimental: Cell culture and stimulation.
Western immunoblot analysis. Adherent cells were washed with ice-cold phosphate-buffered saline containing 1 mM sodium orthovanadate (Na3VO4) and lysed in ice-cold RIPA lysis buffer freshly prepared and supplemented with 1 mM Na3VO4, complete protease inhibitor cocktail, and 2 mM phenylmethylsulfonyl fluoride. Whole cell lysates were centrifuged at 14,000 g for 15 minutes at 4° C.

[5] = tested on: EoE-derived primary esophageal fibroblasts; assay: qPCR of pro-fibrotic gene expression in EoE-derived esophageal fibroblasts stimulated with TGF-β1; conditions: at the concentrations used, up to 20 μM
Experimental: Reagents, human esophageal tissues, and primary human esophageal fibroblast isolation TGF-β1 (5 ng/mL; R&D Systems, Minneapolis, MN), rosiglitazone (20 μM; Abcam, Boston, MA), pioglitazone (20 μM; Sigma-Aldrich, St. Louis, MO), budesonide (0.1 μM; St. Louis, MO), and IL-4 (10 ng/mL; R&D Systems, Minneapolis, MN) were used in cell culture experiments.
Cell culture and stimulation. Human esophageal fibroblast cells were matched as closely as possible for sex, race, and passage. At sub-confluence, cells were serum starved overnight and treated with a TZD, budesonide, a combination, or vehicle for 2-3 hours followed by incubation with TGF-β1 or vehicle.
Preparation of total RNA and cDNA and quantitative PCR. Total RNA from fibroblast cultures was extracted using RNA STAT-60 (Tel-Test, Inc., Friendswood, TX) protocol, and oligo(dT)-primed cDNA was synthesized as previously described using the Qiagen RT-PCR kit and manufacturer's instructions. Quantitative real-time PCR (qPCR) primers are listed in Table 3; qPCR was carried out as previously described using the appropriate gene-specific primers, and relative gene expression was calculated using the method, with glyceraldehyde 3-phosphate dehydrogenase (gapdh) as the housekeeping gene (Rawson et al., J. Allergy Clin. Immunol., 138:791-800, 2016).

Row | Compound | TGFβ1-induced protein expression of collagen-1α1 ([1]; EoE fibroblasts from 2 patients, budesonide 0.1 μM) | drug-related adverse events [2] | tolerability [2] | cardiac effect [3] | TGF-β1-induced protein expression of collagen-1α1 [4] | TGF-β1-induced protein expression of α-sma [4] | basal protein expression of α-sma ([1]; EoE fibroblasts, 20 μM) | toxicity (housekeeper gene expression, responses in normal fibroblasts) [5]
1 | CCCC1O[C@@H]2C[C@H]3[C@@H]4CCC5=CC(=O)C=C[C@]5(C)[C@H]4[C@@H](O)C[C@]3(C)[C@]2(C(=O)CO)O1 (stereo partly drawn) [budesonide, 16,17-(butylidenebis(oxy))-11,21-dihydroxy-, (11-β,16-α)-pregna-1,4-diene-3,20-dione] | no effects |  |  |  |  |  |  | 
2 | CCc1ccc(CCOc2ccc(CC3SC(=O)NC3=O)cc2)nc1 (stereo not drawn) [pioglitazone] |  | no major drug-related adverse events | well tolerated | cardioprotective effect |  |  |  | 
3 | CN(CCOc1ccc(CC2SC(=O)NC2=O)cc1)c1ccccn1 (stereo not drawn) [rosiglitazone] |  |  |  | myocardial infarction risk was subsequently disproven | did not inhibit | did not inhibit | did not inhibit | not due to toxicity
